In patent publication US11725038B2 (priority 2007, dated 2023):
Where a chain is given by its changes, count along the chain named.

Legend:
[1] = molecular target: T1, vHGlyRα1 infected HEK 293T cells (Homo sapiens, UniProt P23415); assay: glycine-mediated whole-cell currents, voltage-clamp recording; format: cell-based; conditions: for mean peak current: 24 hours post-infection, MOI 10; for percent desensitization: 100×(1−ISS/Ipeak)
T1 construct: expressed in transfected cells; host or cells: HEK 293T cells infected with replication-defective HSV vector vHGlyRα1 (HCMV promoter), MOI 10
T1 sequence (P23415 29-457): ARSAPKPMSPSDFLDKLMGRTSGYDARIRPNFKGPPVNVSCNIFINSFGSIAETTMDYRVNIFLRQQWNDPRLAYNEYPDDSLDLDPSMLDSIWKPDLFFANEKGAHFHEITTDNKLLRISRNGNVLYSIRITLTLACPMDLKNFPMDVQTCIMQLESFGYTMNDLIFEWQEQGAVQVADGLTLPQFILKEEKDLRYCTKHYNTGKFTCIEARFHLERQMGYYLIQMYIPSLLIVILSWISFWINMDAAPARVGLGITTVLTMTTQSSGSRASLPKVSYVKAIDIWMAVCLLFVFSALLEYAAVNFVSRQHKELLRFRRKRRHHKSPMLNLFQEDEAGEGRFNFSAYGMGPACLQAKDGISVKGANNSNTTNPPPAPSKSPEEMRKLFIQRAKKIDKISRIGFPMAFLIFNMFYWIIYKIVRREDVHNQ
Description: (§1) Human embryonic kidney (HEK) 293T cells were maintained as previously described (Qian et al., J. Physiol., 562, 319-31 (2005)). For recordings, HEK 293T cells were plated onto glass coverslips pretreated with poly-D-lysine (0.1 mg/ml) and rat-tail collagen (0.1 mg/ml; BD Biosciences, San Jose, Calif.) in 35 mm culture dishes at 1-2×10^5 cells per dish. 24 hours after plating, the cells were infected with the GlyR-HSV construct. For infections the growth medium was removed, the cells were washed twice with serum free growth medium, and vHGlyRα1 was added at a multiplicity of infection (MOI) of 10. The cells were then incubated at 37° C. for 1 hour. Following incubation, 1.5 ml of growth medium (with serum) was added and the cells were incubated for an additional 24 hours at 37° C. Recordings were then performed 24 hours post-infection at room temperature. Glycine-mediated whole-cell currents were recorded with an Axopatch 200 amplifier (Molecular Devices, Union City, Calif.) in voltage-clamp mode. Solutions were delivered via an in-house fabricated fast perfusion system (Qian et al., J. Physiol., 538, 65-77 (2002)). The external solution contains (in mM): 140 NaCl, 5 KCl, 2 CaCl2), 1 MgCl2, and 10 HEPES; pH is 7.2+0.05, adjusted with NaOH and osmolality 290+10 adjusted with sucrose as needed. The internal solution contains (in mM): 140 CsCl, 1 CaCl2), 1 MgCl2, 2 MgATP, 10 HEPES, and 10 EGTA; pH is 7.3+0.05, adjusted with CsOH and osmolality 300+0.05. Data were recorded with a Digidata 1322A digitizer under the control of pClamp 9.2 software (Molecular Devices) and all analyses were performed with Clampfit 9.2 (Molecular Devices) or Origin 7.0 (OriginLab, Northampton, Mass.). Percent desensitization was measured as 100×(1−ISS/Ipeak), where ISS and IPeak are the amplitudes of current at steady state and peak, respectively.

[2] = tested on: uninfected HEK 293T cells; conditions: uninfected HEK 293T cells (N=4)
Description: as §1, with “Solutions were delivered via an in-house fabricated fast perfusion system (Qian et al., J. Physiol., 538, 65-77 (2002)). The external solution contains (in mM): 140 NaCl, 5 KCl, 2 CaCl2), 1 MgCl2, and 10 HEPES; pH is 7.2+0.05, adjusted with NaOH and osmolality 290+10 adjusted with sucrose as needed. The internal solution contains (in mM): 140 CsCl, 1 CaCl2), 1 MgCl2, 2 MgATP, 10 HEPES, and 10 EGTA; pH is 7.3+0.05, adjusted with CsOH and osmolality 300+0.05.” left out

[3] = tested on: formalin-induced nociceptive behavior; assay: rat formalin model of pain; format: in vivo
Description: For in vivo studies, rats were subcutaneously injected with vHGlyRα1 or vHG, a control vector without al GlyR, into the plantar surface of the right hind foot. Analgesic effects of viral injections were assessed one week later by subcutaneous injection of formalin.
Specifically, 3-month-old male Sprague-Dawley rats (225-250 g) were injected with 200 μl (1×10^8 plaque forming units) of either vHGlyRα1 or vHG into the plantar surface of the right hind foot. One week later the analgesic properties of the vectors was assessed by subcutaneously injecting 50 μl of 2.5% formalin into the right hind foot and assessing pain-related behaviors as previously described (Goss et al., Gene Ther., 8, 551-6 (2001)). […] The beginning of second phase pain varied between animals from 20 to 40 minutes; this variation was independent of the vector used.

[4] = molecular target: T2, mutant (M287L) mouse glycine α1 receptor (Mus musculus, UniProt Q64018, M315L); conditions: M287L mutation versus wild-type; cited from earlier work
T2 sequence (Q64018 29-457 M315L): T1 sequence (P23415 29-457) with M287L, E334D, A337G, S368N, Q429K

[5] = higher glycine concentration (1 mM)
[6] = lower glycine concentration (50 uM)

Row | Compound | mean peak current ([1]; 50 uM glycine) | mean peak current ([1]; 1 mM glycine) | 10-90% rise time [1, 5] | percent desensitization [1, 5] | 10-90% rise time [1, 6] | percent desensitization [1, 6] | current response to application of glycine [2] | nociceptive behavior following glycine application ([3]; vHG transfected animals (control vector)) | second phase pain following injection of glycine ([3]; vHGlyRα1-infected animals, 50 μl of 100 mM glycine at the 30 minute time point) | sensitivity of the receptor to the volatile anesthetic [4]
1 | NCC(=O)O [glycine] | −3.57+0.59 nA | −9.25+1.47 nA | 11.4 ± 1.0 ms | 89.8+1.1% | 265.2 ± 79.1 ms | 73.4+7.3% | failed to elicit a current response | small, transient, non-significant dip | significantly reduced | –
2 | FC(F)OC(F)(F)C(F)Cl (stereo not shown) [enflurane] | – | – | – | – | – | – | – | – | – | greatly enhanced sensitivity
